Source: US20050124794A1, “Cell surface tropomyosin as a target of angiogenesis inhibition” (priority 2002, published 2005)
One block for each compound: values may come before it. Numbered stars: 1 amine (or outer) side, 2 acyl side, 3 side chain; on linkers, the order of the positions; unused ones are H or OH. Square brackets hold non-standard residues; d marks the D form. Ends that are not written are not given here. Peptide text beside a SMILES is read from it. * marks the point of attachment. X3 = O=C([C@H](Cc1c[nH]cn1)N(Cc1ccc(Cl)cc1)[*:1])[*:2]; Fmoc = O=C(OCC1c2ccccc2-c2ccccc21)*

Assays:
chicken gizzard Tpm = molecular target: T1, chicken gizzard Tpm (Gallus gallus, UniProt P19352); experiment: Binding to immobilized Tpm in a 96 well plate (biotin-HKa competition or direct binding); settings: 10 μM ZnCl2; for IC50: displacement of 10 nM biotinylated-HKa; for binding to immobilized Tpm / displacement of biotin-HKa (in words): 10 nM biotin-HKa, 200 ng chicken gizzard Tpm
T1 construct: purchased Sigma; host or cells: chicken gizzard (tissue-derived, as the name says)
Description: Plates are coated at room temperature with chicken gizzard Tpm (Sigma) in Tris buffer-saline (TBS) (200 ng/well). After incubation for 2 hours, wells are washed with TBS, then 1% BSA/TBS/Tween-20 is added to each well and incubate at 37° C. for two hours. HKa (Enzyme Laboratories) that had been previously biotinylated with EZ-Link (Pierce) according to the manufacturers instructions, is added to the plate at a concentration of 10 nM together with ZnCl2 (10 μM) and the appropriate concentration of the protein, domain or peptide competitor. The plates are incubated at room temperature and then washed with TBS/Tween-20. Avidin-HRP is added, incubated for 20 minutes at room temperature, washed with TBS/Tween-20 and the chromogenic substrate is added. The reaction is stopped with sulfuric acid and the plate read at 490 nm.
(§1) The IC50 for the displacement of biotinylated-HKa for the peptides shown in Table 5 was determined as follows: 10 nM biotin-HKa is added to a 96 well plate previously coated with 200 ng of chicken gizzard Tpm in the presence of 10 μM ZnCl2. Increasing amounts of the peptides are added to the wells. The remaining biotin-HKa bound to Tpm was detected using avidin-HRP and a chromogenic substrate. A Kd was determined by non-linear regression analysis of the empirical data. The effect on the Matrigel Plug assay was determined as follows: Matrigel (0.5 mL) containing 400 ng/ml of bFGF, 50 μg/ml heparin with or without the peptide (300 μM) or saline buffer are injected in the flanks of a mouse. After five days, the plugs are removed and the plugs scanned.
The N-terminus of the pentapeptide HHPHG has been derivatized (capped) in an attempt to increase the pentapeptides' affinity to Tpm by increasing productive molecular contacts (or interactions). […] The IC50 for the displacement of biotinylated-HKa for the capped peptides shown in the table was determined as follows: 10 nM biotin-HKa was added to a 96 well plate previously coated with 200 ng of chicken gizzard Tpm in the presence of 10 μM ZnCl2. Increasing amounts of the peptides were added to the wells. The remaining biotin-HKa bound to Tpm was detected using avidin-HRP and a chromogenic substrate. A Kd was determined by non-linear regression analysis of the empirical data

MatLyLu cells = experiment: Matrigel/MatLyLu model (Matrigel plug with tumor cells); format: in vivo; settings: 700 μM ATN230 or 900 μM ATN294, 2×10^6 MatLyLu cells in mouse flank, seven days
Excerpt: In this assay, tumor cells, for example 1-5×10^6 cells of the 3LL Lewis lung carcinoma or the rat prostate cell line MatLyLu, are mixed with Matrigel® and then injected into the flank of a mouse following the protocol described in Sec. B., above. A mass of tumor cells and a powerful angiogenic response can be observed in the plugs after about 5 to 7 days. The anti-tumor and anti-angiogenic action of a compound in an actual tumor environment can be evaluated by including it in the plug. Measurement is then made of tumor weight, Hb levels or fluorescence levels (of a dextran-fluorophore conjugate injected prior to sacrifice). To measure Hb or fluorescence, the plugs are first homogenize with a tissue homogenizer.

[1] = system: bFGF-induced angiogenesis; experiment: Matrigel plug assay (bFGF-induced angiogenesis); format: in vivo, mouse; settings: 400 ng/ml bFGF, five days, plugs scanned; for Inhibits Angiogenesis (Matrigel ® assay): peptide 300 μM, 50 μg/ml heparin
Description: This assay is performed essentially as described by Passaniti et al. (Lab Invest. 67:519-528 (1992). Ice-cold Matrigel® (e.g., 500 μL) (Collaborative Biomedical Products, Inc., Bedford, Mass.) is mixed with heparin (e.g., 50 μg/ml), FGF-2 (e.g., 400 ng/ml) and the compound to be tested. In some assays, bFGF may be substituted with tumor cells as the angiogenic stimulus. The Matrigel® mixture is injected subcutaneously into 4-8 week-old athymic nude mice at sites near the abdominal midline, preferably 3 injections per mouse. The injected Matrigel® forms a palpable solid gel. Injection sites are chosen such that each animal receives a positive control plug (such as FGF-2+heparin), a negative control plug (e.g., buffer+heparin) and a plug that includes the compound being tested for its effect on angiogenesis, e.g., (FGF-2+heparin+compound). All treatments are preferably run in triplicate. Animals are sacrificed by cervical dislocation at about 7 days post injection or another time that may be optimal for observing angiogenesis. The mouse skin is detached along the abdominal midline, and the Matrigel® plugs are recovered and scanned immediately at high resolution. Plugs are then dispersed in water and incubated at 37° C. overnight. Hemoglobin (Hb) levels are determined using Drabkin's solution (e.g., obtained from Sigma) according to the manufacturers' instructions. The amount of Hb in the plug is an indirect measure of angiogenesis as it reflects the amount of blood in the sample. In addition, or alternatively, animals may be injected prior to sacrifice with a 0.1 ml buffer (preferably PBS) containing a high molecular weight dextran to which is conjugated a fluorophore. The amount of fluorescence in the dispersed plug, determined fluorimetrically, also serves as a measure of angiogenesis in the plug. Staining with mAb anti-CD31 (CD31 is “platelet-EC adhesion molecule or PECAM”) may also be used to confirm neovessel formation and microvessel density in the plugs.
as §1
These cyclic peptides were also tested for their ability to inhibit bFGF-induced angiogenesis in vivo in a Matrigel plug assay. Matrigel (0.5 mL) containing 400 ng/ml of bFGF, 50 μg/ml heparin with or without 10 μM peptide (ATN-310, ATN-311 or ATN-312 or saline buffer for the controls, was injected subcutaneously in the hind flanks of a mouse as described above. All the treatments were done in triplicate. After five days, the vascularization of the Matrigel plug was determined fluorometrically after i.v. injection of 100 μl of dextran conjugated with fluorescein isothiocyanate (FITC-dextran; MW 250,000, Sigma). Five days after injection, the plugs were removed and subjected to mincing of tissue which releases vascular FITC-dextran into the supernatant. Samples of supernatant were subjected to fluorimetry as a measure of vascularity of the plug. The amount of vasculature (neovessels) is directly proportional to the fluorescent signal which reflects the total vascular blood volume of the plug. The results are shown in Table 7, below and expressed as arbitrary fluorescence units or as % inhibition relative to the negative control.

[2] = molecular target: T2, D5 domain of human kininogen, HKa (Homo sapiens, UniProt P01042); experiment: Binding to HKa D5 (affinity column)
T2 construct: made in house
T2 sequence (P01042 402-526): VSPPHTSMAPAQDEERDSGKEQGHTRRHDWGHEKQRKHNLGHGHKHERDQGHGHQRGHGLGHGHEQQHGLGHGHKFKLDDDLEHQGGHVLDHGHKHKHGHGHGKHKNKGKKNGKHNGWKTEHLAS
Description: Chicken gizzard Tpm was partially digested with Chymotrypsin as described for FIG. 19 for 100 minutes so that a 20 kDa fragment was enriched. HK-D5 had previously immobilized in an activated Sepharose (CNBr-activated Sepharose 4 B, Amersham Biosciences). The chymotryptic fragments were incubated with the HK-D5-Sepharose resin in TBS containing 10 μM ZnCl2, washed extensively in the same buffer and eluted in 2 M NaCl. The samples were run in a 10% NuPage gel (Invitrogen).
The present inventors discovered the AALBP by passing a chymotryptic digest of cTPM1 over an affinity column comprising an antiangiogenic polypeptide, specifically, the D5 domain of human kininogen, HKa. Material that bound to the column was subjected to N-terminal sequencing. The sequence was determined to be SESVKEAQE, corresponding to residues 61-69 of cTPM1 (SEQ ID NO: 1) and residues 1-9 of SEQ ID NO:2.
The fragment was partially purified by passing the chymotryptic digest through an affinity column of Sepharose-HKa-D5. The column was extensively washed and eluted with high salt buffer. The resulting material was run on an SDS gel which appears in (FIG. 20). […]

[3] = Table 6, N-capped HHPHG peptides

T1 sequence (P19352 1-284 isoform P19352-2): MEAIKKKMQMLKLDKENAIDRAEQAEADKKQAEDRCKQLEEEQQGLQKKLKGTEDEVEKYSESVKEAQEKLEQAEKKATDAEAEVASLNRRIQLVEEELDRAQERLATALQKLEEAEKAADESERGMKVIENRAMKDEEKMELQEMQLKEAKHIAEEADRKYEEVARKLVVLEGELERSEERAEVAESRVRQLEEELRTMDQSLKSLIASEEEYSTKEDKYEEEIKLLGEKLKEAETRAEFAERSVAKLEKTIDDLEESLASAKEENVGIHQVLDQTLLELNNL
T1 sequence (P04268 1-284 isoform P04268-2 F73S/I172L/T199L/N203E/L204A partner): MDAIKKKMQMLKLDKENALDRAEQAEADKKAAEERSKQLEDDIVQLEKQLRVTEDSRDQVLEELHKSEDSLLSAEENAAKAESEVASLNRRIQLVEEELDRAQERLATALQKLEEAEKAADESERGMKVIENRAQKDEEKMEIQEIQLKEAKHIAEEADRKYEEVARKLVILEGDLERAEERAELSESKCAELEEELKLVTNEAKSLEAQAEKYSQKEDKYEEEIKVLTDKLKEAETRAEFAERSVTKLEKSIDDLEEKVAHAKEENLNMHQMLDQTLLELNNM

IC50 (chicken gizzard Tpm; [3]): 23 µM
Compound: O=C(O)CNC(=O)[C@H](Cc1c[nH]cn1)NC(=O)[C@@H]1CCCN1C(=O)[C@H](Cc1c[nH]cn1)NC(=O)[C@H](Cc1c[nH]cn1)NCc1ccc(Cl)cc1 [ATN-276.000.01, 4-Chlorobenzyl] (H-[X3]HPHG-OH)

IC50 (chicken gizzard Tpm; [3]): 55 µM
Compound: O=C(O)CNC(=O)[C@H](Cc1c[nH]cn1)NC(=O)[C@@H]1CCCN1C(=O)[C@H](Cc1c[nH]cn1)NC(=O)[C@H](Cc1c[nH]cn1)NC(=O)OCC1c2ccccc2-c2ccccc21 [ATN-278.000.01, Fmoc] (Fmoc-HHPHG-OH; C-terminus assumed)

binding to immobilized Tpm / displacement of biotin-HKa (in words) (chicken gizzard Tpm): abolished
Compound: AHPHG [ATN294]
inhibition of MatLyLu growth, plug weight (in words) (MatLyLu cells): not
inhibition of MatLyLu growth, plug weight (in words) (MatLyLu cells; listed as AHPHG): significantly less anti-tumor activity

binding to HKa D5 (in words) [2]: binds
Compound: SEQ ID NO:2: chymotryptic fragment, residues 61-214 of chicken gizzard cTPM1, about 17 kDa

Continued, compound first:

Compound: APPHG [ATN246, APPHG]
IC50 (chicken gizzard Tpm; Table 5): > 10000 µM

Compound: Ac-HHPHG [ATN269, c-HHPHG]
IC50 (chicken gizzard Tpm; Table 5): > 10000 µM

Compound: Ac-HHPHG-NH2 [ATN239, c-HHPHG-c]
IC50 (chicken gizzard Tpm; Table 5): > 10000 µM

Compound: Ac-HPPHG-NH2 [ATN231, c-HPPHG-c]
IC50 (chicken gizzard Tpm; Table 5): > 10000 µM

Compound: Ac-PPPHG-NH2 [ATN229, c-PPPHG-c]
IC50 (chicken gizzard Tpm; Table 5): > 10000 µM

Compound: HHPHG [ATN230, HHPHG]
inhibition of MatLyLu growth, plug weight (in words) (MatLyLu cells): inhibited MatLyLu growth
inhibition of MatLyLu growth, plug weight (in words) (MatLyLu cells; listed as HHPHG): anti-tumor activity
Inhibits Angiogenesis (Matrigel ® assay) [1]: Yes
Inhibits Angiogenesis (Matrigel ® assay) ([1]; listed as HHPHG): substantial activity

Compound: HKNKGKKN [ATN16, HKNKGKKN]
IC50 (chicken gizzard Tpm; Table 5): 99.5 µM
Inhibits Angiogenesis (Matrigel ® assay) [1]: Yes

Compound: HPPHG [ATN228, HPPHG]
binding to immobilized Tpm / displacement of biotin-HKa (in words) (chicken gizzard Tpm): bound
inhibition of angiogenesis in the Matrigel plug model (in words) ([1]; 20 μg peptide): inhibited angiogenesis
Inhibits Angiogenesis (Matrigel ® assay) [1]: Yes

Compound: PPPHG [ATN227, PPPHG]
IC50 (chicken gizzard Tpm; Table 5): > 10000 µM

Compound: TRRHDWGH [ATN232, TRRHDWGH]
IC50 (chicken gizzard Tpm; Table 5): 140 µM
Inhibits Angiogenesis (Matrigel ® assay) [1]: Yes
